# Experimental data: US8808718B2, “Hypertonic organic acid or salt thereof disinfectant composition and its use in dental treatment” (Nikinc Pharma B.V., priority 2010, dated 2014)
# “And” between values parts separate entries of the source, which are not always exact repeats. Identical values can stand only once. Like-named read-outs stand apart in the source and are kept apart here.
# Columns and labels:
# [1] = test system: biofilm of Enterococcus faecalis and Pseudomonas aeruginosa; assay: Dual-species biofilm model, whole biofilm (total kill, plaque observation); assay type: cell-based; details: for visual observation of biofilm plaque on glass coverslips: after the experimental phase, calcification seen after 24 h
# Excerpt: The broth was refreshed daily. […] Later on biofilm growth was confirmed clinically. […] Colonies were very small. […] For imaging a Leica DM-IRB inverted microscope/SP2-AOBS confocal system was used. Images (512*512 pixels) were acquired with a 40×/NA 1.25 HCX PL APO oil objective. The final pixel size was 0.776 μm. […] Image stacks were acquired with a stepsize of 0.3 μm. Excitation/detection of Syto-9 and propidium iodide (PI) was done simultaneously with 488 nm excitation and with 500-550 nm detection for SYTO 9 and 600-690 nm detection for PI respectively.
# [2] = test system: Pseudomonas aeruginosa; details: for mean log reduction of CFU compared with the controls: P. aeruginosa in dual-species biofilm; for significance of reduction of P. aeruginosa vs negative controls (ANOVA): α=0.05
# Protocol: (§1) In brief, round glass cover slips attached to a custom made stainless steel lid, were suspended in medium inoculated with bacteria.
# (§2) Cells of E. faecalis V583 and P. aeruginosa, both clinical isolates, were grown and maintained as pure cultures on blood agar plates. E. faecalis was grown under anaerobic conditions (80% N2, 10% H2 and 1.0% CO2) while P. aeruginosa was grown in air, both at 37° C. Because of their shape, Gram-staining and atmospheric preferences, distinguishing between the two species with (ISM and CFU was fairly simple. Growth media for overnight cultures and biofilms were Brain Heart Infusion Broth (BHI, Oxoid, Basinstoke, UK) and BHI-broth contained 0.5 BHI, 50 mM pipes, 5% saccharose, 1 mM Ca^2+ during biofilm growth. In the experimental phase, sodium chloride (NaCl), (Merck, Darmstadt, Germany) was added to the BHI-broth to raise the osmotic value. Other medicaments used were saturated Ca(OH) in BHI-broth (slurry), 2% sodium hypochlorite (NaOCl), Merck, Darmstadt, Germany), 2% sodium thiosulphate (STS) in peptone water (1% peptone (Oxoid) in water) for neutralising the NaOCl. Phosphate buffered saline (PBS, Oxoid) was used to wash the negative controls, as a neutralising agent for NaCl, Ca(OH)2 and for serial
# (§3) Fresh cultures of each micro-organism were obtained by suspending one loopful bacteria in 5 mL BHI and grown overnight at 37° C. in air. Numbers of CFU were estimated by optical density measurement at 600 nm and relating the readings to previously performed bacterial counts. 100 μL with approximately 2×10^9 E. faecalis and 100 μL with approximately 2×10^7 P. aeruginosa were inoculated in wells of a 24 Well Multiwell Plate (Greiner Bio-one, Frickenhausen, Germany) containing 1.5 mL BHI-broth. Round glass cover slips (MMG, Germany), diameter 15 mm, mounted in a custom-made stainless steel lid, were suspended in the BHI-broth. Biofilms were grown on glass cover slips to be able to monitor the biofilm growth with a confocal laser scanning microscope (CLSM; Leica SP2-OBS). The biofilms were firmly attached on the glass slips, allowing manipulation of the coverslips without biofilm disruption.
# (§4) Biofilms were grown on the coverslips for 96 h before exposure to the medicaments. […] The broth was refreshed daily. Inoculation of bacteria and the biofilm growth took place at 37° C. in air. After 48 h biofilm growth was confirmed with the aid of CLSM. Three coverslips with attached biofilms were viewed with CLSM after staining with Syto 9 and propidium iodine (PI) (LIVE/DEAD® BacLight™) according to the manufacturer's instruction. Intact, live cells stain fluorescent green, while dead cells with damaged plasma membranes stain fluorescent red.
# (§5) After 96 h the coverslips with the attached bio films were submerged in NaCl-broth or Ca(OH)2-broth for 4 h, 24 h, 48 h, 72 h and 168 h. The negative controls were kept in BHI-broth. Where applicable, the incubation fluids were refreshed daily. Submersion in NaOCl 2% for 10 min served as a positive control.
# [3] = test system: Enterococcus faecalis; details: for mean log reduction of CFU compared with the controls: E. faecalis in dual-species biofilm; for significance of reduction of E. faecalis vs negative controls (ANOVA): α=0.05
# Protocol: as §1, §2, §3, §4, §5
# [4] = dual-species biofilms exposed to Ca(OH)2
Structure (SMILES),effectiveness in the biofilm model (conclusion) [1],visual observation of biofilm plaque on glass coverslips [1],"bacterial reduction after a week (end of experiment) [1, 4]","bacterial reduction, initial [1, 4]",mean log reduction of CFU compared with the controls ([2]; 72 h exposure),mean log reduction of CFU compared with the controls ([2]; 168 h exposure),significance of reduction of P. aeruginosa vs negative controls (ANOVA) [2],mean log reduction of CFU compared with the controls ([3]; 72 h exposure),mean log reduction of CFU compared with the controls ([3]; 168 h exposure),significance of reduction of E. faecalis vs negative controls (ANOVA) [3],"reductions after a week's exposure ([1]; 6.2 M NaCl in broth, dual species biofilm, one value per species, species not assigned)","P. aeruginosa CFU detected after exposure ([2]; after 168 h exposure, control biofilms 1.5×10^9 CFU)",mean remaining CFU of E. faecalis ([3]; after 168 h exposure),"kill ([1]; 2% NaOCl, 10 min exposure)"
"[Ca+2].[OH-].[OH-] [Ca(OH)2, calcium hydroxide]",not effective,all samples showed bio film calcification,tenfold,hundredfold,2 log CFU,1 log CFU,significantly,2 log CFU,1 log CFU,not significant,–,–,–,–
"[Cl-].[Na+] [NaCl, sodium chloride]",–,no signs of a biofilm plaque,–,–,6 log CFU,8 log CFU,highly significant,6 log CFU,8 log CFU,highly significant,10^8 and 10^7,none could be detected,40 CFU,–
"OCl [NaOCl, sodium hypochlorite]",–,–,–,–,–,–,–,–,–,–,–,–,–,100%
